This note sets out measurements from PMC8592027, “Structure-Guided Design of D-Galactal Derivatives with High Affinity and Selectivity for the Galectin-8 N-Terminal Domain” (ACS Medicinal Chemistry Letters, 2021).

What all share (assay type): binding
The target in test [1] is T1, galectin-8C (C-terminal domain) (Homo sapiens, UniProt O00214).
T1 construct: galectins (N = N-terminal domain, C = C-terminal domain)
T1 sequence (O00214 187-317 limits assumed): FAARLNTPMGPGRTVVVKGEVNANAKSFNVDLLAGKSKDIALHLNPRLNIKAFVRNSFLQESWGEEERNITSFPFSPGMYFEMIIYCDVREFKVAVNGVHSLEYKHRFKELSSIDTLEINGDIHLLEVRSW
The test is described as follows: Competitive fluorescence polarization assay, galectin-8C. The note with it: mean ± SEM of n = 4–8. (In general: Fluorescence polarisation rises when a labelled molecule tumbles more slowly, as on binding a larger partner.)

The target in test [2] is T2, galectin-4C (C-terminal domain) (Homo sapiens, UniProt P56470).
T2 construct: galectins (N = N-terminal domain, C = C-terminal domain); made in house
T2 sequence (P56470 194-323 limits assumed): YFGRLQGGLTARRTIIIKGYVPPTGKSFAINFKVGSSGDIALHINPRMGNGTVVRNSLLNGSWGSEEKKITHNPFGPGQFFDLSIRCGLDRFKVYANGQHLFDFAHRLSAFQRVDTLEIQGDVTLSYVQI
The test is described as follows: Competitive fluorescence polarization assay, galectin-4C. The following applies: mean ± SEM of n = 4–8. How it is done:
(§1) 1. Competitive fluorescence polarization experiments:
(§2) Human galectins -1, -3, -4N, -4C, -7, -8N, -9N, and -9C were expressed and purified as previously described 30,41. Fluorescence polarisation experiments were performed using the PHERAstar FS plat e reader (software version 2.10 R3), and the fluorescence anisotropy of fluorescein tagged probes was measured by excitation at 485 nm and emission at 520 nm. The specific conditions for galectins -1, -3, -4N, -4C, -7, -8N, -9N, and -9C were kept as report ed30,41,42. The synthesised compounds were dissolved in pure DMSO at 20 mM concentration and diluted in PBS to 3-6 different concentrations, and each concentration was tested in duplicate. The highest inhibitor concentrations tested were 1.5 mM. The

The target in test [3] is T3, galectin-9N (N-terminal domain) (Homo sapiens, UniProt O00182).
T3 construct: galectins (N = N-terminal domain, C = C-terminal domain); made in house
The test is described as follows: Competitive fluorescence polarization assay, galectin-9N. The following applies: mean ± SEM of n = 4–8. The procedure: as §1, §2

Another test addresses T4, galectin-3 (Homo sapiens, UniProt P17931).
T4 construct: made in house
The test is described as follows: Competitive fluorescence polarization assay, galectin-3. The note with it: mean ± SEM of n = 4–8. How it is done:
as §1, §2

Test [4] has as its target T5, galectin-4N (N-terminal domain) (Homo sapiens, UniProt P56470).
T5 construct: galectins (N = N-terminal domain, C = C-terminal domain); made in house
T5 sequence (P56470 19-150 limits assumed): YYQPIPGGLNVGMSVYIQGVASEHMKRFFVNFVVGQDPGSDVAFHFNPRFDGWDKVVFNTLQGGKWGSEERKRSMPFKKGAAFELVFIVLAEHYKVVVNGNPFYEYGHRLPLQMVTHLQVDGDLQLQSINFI
Put plainly: Competitive fluorescence polarization assay, galectin-4N. The note with it: mean ± SEM of n = 4–8. The procedure: as §1, §2

The target in another test is T6, galectin-1 (Homo sapiens, UniProt P09382).
T6 construct: made in house
Put plainly: Competitive fluorescence polarization assay, galectin-1. The note with it: mean ± SEM of n = 4–8. How it is done:
as §1, §2

In test [5] the target is T7, galectin-8N (galectin-8 N-terminal domain) (Homo sapiens, UniProt O00214).
T7 construct: selective ligand for the galectin-8 N-terminal domain (galectin-8N); made in house
T7 sequence (O00214 19-152 limits assumed): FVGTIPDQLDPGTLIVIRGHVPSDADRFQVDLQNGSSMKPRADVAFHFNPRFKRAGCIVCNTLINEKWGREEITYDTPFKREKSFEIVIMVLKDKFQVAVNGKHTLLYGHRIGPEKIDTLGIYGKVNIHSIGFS
The test is described as follows: Competitive fluorescence polarization assay, galectin-8N. The following applies: for Kd: mean ± SEM of n = 4–8. The procedure:
All synthesized D-galactal derivatives had higher binding affinities for galectin-8N than D-galactal 3.
as §1, §2

Test [6] deals with T8, galectin-9C (C-terminal domain) (Homo sapiens, UniProt O00182).
T8 construct: galectins (N = N-terminal domain, C = C-terminal domain); made in house
Put plainly: Competitive fluorescence polarization assay, galectin-9C. The following applies: mean ± SEM of n = 4–8. How it is done:
as §1, §2

In a further test the target is T9, galectin-2 (Homo sapiens, UniProt P05162).
T9 sequence (P05162 1-132): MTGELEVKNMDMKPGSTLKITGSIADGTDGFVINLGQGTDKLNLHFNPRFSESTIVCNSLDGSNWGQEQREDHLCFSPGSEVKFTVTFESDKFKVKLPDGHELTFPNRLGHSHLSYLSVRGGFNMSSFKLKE
The test is described as follows: Competitive fluorescence polarization assay, galectin-2. The note with it: mean ± SEM of n = 4–8.

T4 sequence (P17931 whole entry): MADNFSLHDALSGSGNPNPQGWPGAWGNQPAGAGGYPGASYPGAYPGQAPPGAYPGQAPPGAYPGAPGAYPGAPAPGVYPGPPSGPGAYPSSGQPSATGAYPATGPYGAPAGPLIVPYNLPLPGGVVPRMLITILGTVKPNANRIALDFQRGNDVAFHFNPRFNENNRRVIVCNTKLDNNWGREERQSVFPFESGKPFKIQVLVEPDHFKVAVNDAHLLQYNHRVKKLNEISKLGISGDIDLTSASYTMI
T6 sequence (P09382 whole entry): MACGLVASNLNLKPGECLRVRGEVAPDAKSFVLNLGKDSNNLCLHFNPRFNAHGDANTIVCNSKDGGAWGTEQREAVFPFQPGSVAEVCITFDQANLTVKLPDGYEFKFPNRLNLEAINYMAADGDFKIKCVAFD
T8 sequence (O00182 227-355 limits assumed): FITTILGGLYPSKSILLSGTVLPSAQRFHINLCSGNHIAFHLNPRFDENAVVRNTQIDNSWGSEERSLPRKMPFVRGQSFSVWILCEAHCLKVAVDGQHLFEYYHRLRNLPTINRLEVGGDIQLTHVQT
T3 sequence (O00182 17-148 limits assumed): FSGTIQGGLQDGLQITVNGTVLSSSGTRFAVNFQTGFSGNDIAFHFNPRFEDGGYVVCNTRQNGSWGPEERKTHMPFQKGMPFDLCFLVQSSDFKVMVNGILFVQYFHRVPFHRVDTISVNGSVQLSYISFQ

Broadly, the Kd is the free concentration of one partner at which half of the binding sites on the other are occupied at equilibrium, for simple one-to-one binding. Higher therefore signals weaker binding. Take `COC(=O)c1ccc2nc(CO[C@@H]3C=CO[C@H](CO)[C@@H]3O)n(C)c2c1` [5a]: the Kd in [1] is 3000 ± 380 µM; in test [2], 2600 ± 230 µM; in test [3], greater than 1500 µM; at galectin-3 it was 1300 ± 130 µM; in [4] it was 1700 ± 60 µM; on galectin-1 it was 2200 ± 138 µM. This compound showed a Kd in test [5] of 400 ± 34 µM.

Consider `CCOC(=O)c1ccc2c(c1)nc(CO[C@@H]1C=CO[C@H](CO)[C@@H]1O)n2C` [5b], for which the Kd in [1] came out at 1500 ± 180 µM; at galectin-3, 680 ± 37 µM; on galectin-1 it was 840 ± 20 µM; in test [5], 690 ± 53 µM.

`COC(=O)c1ccc2nc(CO[C@@H]3C=CO[C@H](CO)[C@@H]3O)[nH]c2c1` [5c]: the Kd in test [1] is 3000 ± 300 µM; in test [2], 2500 µM; in test [6], greater than 1500 µM; in [3] it was greater than 1500 µM; on galectin-3 it was 1200 ± 287 µM; in test [4], 3200 µM. Moreover, the values for the Kd (at galectin-1; in [5]) were greater than 1500 µM and 180 ± 19 µM, respectively.

With `Cn1c(CO[C@@H]2C=CO[C@H](CO)[C@@H]2O)nc2cc(C(=O)O)ccc21` [6b], the Kd was 3000 ± 30 µM in [1]; 2500 ± 300 µM in test [2]; greater than 1500 µM in [6]; greater than 1500 µM in test [3]; 770 ± 129 µM at galectin-3; 3600 µM in test [4]. Besides, the Kd on galectin-1 worked out at 1100 ± 87 µM; in test [5], 810 ± 54 µM.

As to `OC[C@H]1OC=C[C@@H](O)[C@H]1O` [compound 3, D-galactal], the Kd in [1] is 4100 ± 470 µM; in test [2] it was 5300 µM; in [6] it was 4800 µM; in test [3], greater than 1500 µM; on galectin-3, 3300 ± 650 µM; in [4] it was 2400 ± 13 µM. For the same compound, the figures for the Kd (at galectin-1; in test [5]) were 1600 ± 140 µM and 1300 ± 72 µM, respectively. For the same compound, the “higher affinity for galectin-8N compared to the methyl β-D-galactopyranoside” value in test [5] was found to be 5 fold.

Consider `COC(=O)c1ccc2ccc(CO[C@@H]3C=CO[C@H](CO)[C@@H]3O)nc2c1` [compound 8], for which the Kd in test [1] was greater than 1500 µM; in [2], 3700 ± 250 µM; on galectin-2, greater than 1500 µM; in test [6], greater than 1500 µM; in test [3], 1000 ± 51 µM; at galectin-3 it was 1700 ± 40 µM. In addition, the Kd in test [4] was 1300 ± 12 µM; at galectin-1 it was greater than 1500 µM; in test [5] it was 230 ± 16 µM.
